# Results taken from publication PMC4144957, “Molecular Interaction Mechanism between 2-Mercaptobenzimidazole and Copper-Zinc Superoxide Dismutase” (PLoS ONE, 2014).
# Biological target: T1, Cu/ZnSOD from porcine erythrocytes (Sus scrofa, UniProt P04178)
# T1 construct: gene SOD1; native, purchased (Biodee Biotechnology), from porcine erythrocytes; homodimer; human structure 1HL4 used only for docking
# Assay: NBT photoreduction assay
# Assay type: biochemical
# Details: read-out: relative activity (%) at 100 nM MBI
# T1 sequence (P04178 2-153): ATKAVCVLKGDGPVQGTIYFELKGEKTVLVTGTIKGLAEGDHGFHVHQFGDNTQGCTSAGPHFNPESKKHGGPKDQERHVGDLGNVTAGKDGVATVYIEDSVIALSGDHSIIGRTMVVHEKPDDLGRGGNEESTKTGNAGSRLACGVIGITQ
smiles,measurement,value
S=c1[nH]c2ccccc2[nH]1 [MBI],activity at 0.1 µM,89.3 ± 1.2%
